For series [1], the system named is hippocampal neuron cultures (Aβo binding to PSD95/Bassoon synapses). The experiment in a line: Synaptic targeting in hippocampal neurons by Aβ oligomerized with peptide. The conditions noted are these: Aβ oligomerized 2 h in presence of peptide; 0.5 μM, 30 min. It is filed as cell-based, C57Bl/6JRj mouse. On the procedure: Primary hippocampal neuron cultures were prepared from E17‐18 C57Bl/6JRj mice. Briefly, hippocampi were removed and collected in Hank's buffered salt solution (HBSS), digested in HBSS supplemented with trypsin (0.25% v/v) for 10 min at 37°C and then rinsed in HBSS and BSA 0.2%. Next, hippocampi were triturated in Neurobasal medium without phenol red, supplemented with L‐glutamine (2 mM), 2% B27, 1% penicillin/streptomycin (P/S) (10,000 U/mL). Hippocampal neurons were then plated onto poly‐L‐lysine coated coverslips (0.5 mg/mL) at a low density (15 × 10^3 cells/cm^2) for synaptic targeting experiments. Neurons were cultured in supplemented Neurobasal medium at 37°C under 5% CO2, one‐half of the medium being changed once a week. […]
Treated hippocampal neuron cultures were fixed for 4 min in 4% paraformaldehyde (PFA) in 0.1 M phosphate buffer at RT, prior to immunostaining. After a blocking step in non‐permeabilizing condition (PBS, 1% BSA) surface‐bound biotinylated Aβ was detected with fluorescently tagged streptavidin incubated for 3 h at RT. […]
Subsequent analyses of hippocampal synapse staining were performed by a blinded investigator with Icy software. […] Biotinylated Aβ clusters were quantified in each ROI in collapsed Z‐stacks. […]

The target of another series is T1, Aβ40 monomers (Aβm) (Homo sapiens, UniProt P05067).
T1 construct: Biotinyl-Amyloid b pr otein ( 1-40); purchased Bachem H-5914; host or cells: chemical synthesis
The experiment in a line: Indirect ELISA, binding of immobilized BP/CP to biotinylated Aβ40 monomers. The conditions noted are these: Aβm 0 to 10 μg/mL. As to the method: (§1) Synthetic Aβ40, Aβ42, and their biotinylated forms were obtained as lyophilized samples from Bachem (Aβ40, b‐Aβ40, Aβ42 and b‐Aβ42). Briefly, peptides were solubilized in 1,1,1,3,3,3‐hexafluoro‐2‐propanol to prevent oligomerization, then evaporated overnight under a chemical fume hood, and stored as a dried peptide film at −80°C until use, as previously described (Stine et al., [2003]). Aβ monomers (Aβm) were prepared extemporaneously by first dissolving the peptide film in 2 mM dimethyl sulfoxide (DMSO) and vortexing for 1 min. Peptides were further diluted to 100 μM in ice‐cold PBS. Diluted peptides were subsequently sonicated for 20 min at 4°C, centrifuged at 10,000g for 3 min, then the supernatant was collected and concentration of Aβm measured using a micro BCA protein assay kit, prior to being aliquoted and stored at −20°C until use. […]
(§2) The binding of CP or BP to synthetic biotinylated LMW Aβo (oligomerized at 4°C for 24 h) or Aβ40 monomers (Aβm) was determined by indirect ELISA in which CP or BP were used as the capture antigens and the biotin tag of the biotinylated Aβ peptides for the detection. […] Absorbance was successively measured at 450 and 540 nm with a TECAN microplate reader and optical density values at 540 nm were subtracted from the ones at 450 nm to correct for optical imperfections of the plate. […]
(In general: ELISA stands for enzyme-linked immunosorbent assay.)

Series [2] has as its system SC-CA1 synapses in APP/PS1 hippocampal slices. In words: LTP (TBS) in APP/PS1 hippocampal slices. It is filed as cell-based, APP/PS1-21 mouse. As to the method: (§3) Data were expressed as mean ± SEM in ThT, Western blotting, synaptic targeting experiments and electrophysiological recordings (Table S2). Normality and variance homoscedasticity were assessed using descriptive analysis and appropriate tests. Sample size (n) was determined based on previous studies from the literature and pilot experiments; n refers to the number of ELISA, ThT or Western Blotting experiments, to coverslips or culture wells for hippocampal neuron cultures, and to mice per condition or per genotype for electrophysiological experiments. […] For the analysis of Aβ‐BP interaction, K D was determined by fitting the data to a two‐parameter saturation curve. […] For quantitative assessment of Aβ aggregation, Aβ expression level and the percentage of synapses colocalized with Aβ, data were compared for statistical significance between groups using a Kruskal–Wallis and a Dunn's post hoc test with Holm correction (R software) (Table S3). For electrophysiological data, statistical analysis between treatments and/or genotypes were carried out using a Kruskal–Wallis followed by a Dunn's post hoc test to compare differences in fEPSP slopes (Table S3).

In series [3] the target is T2, Aβo-VEGF interaction (recombinant human VEGF165) (Homo sapiens, UniProt P05067).
T2 construct: Biotinyl-Amyloid b pr otein ( 1-42); purchased R&D Systems (VEGF165); Bachem (biotinyl-Aβ 1-42) 293-VE (VEGF165); H-5642 (biotinyl-Aβ 1-42)
In words: Competitive ELISA, Aβo binding to immobilized VEGF165. The series is classed as biochemical. On the procedure:
Data were expressed as mean ± SEM in ThT, Western blotting, synaptic targeting experiments and electrophysiological recordings (Table S2). Normality and variance homoscedasticity were assessed using descriptive analysis and appropriate tests. Sample size (n) was determined based on previous studies from the literature and pilot experiments; n refers to the number of ELISA, ThT or Western Blotting experiments, to coverslips or culture wells for hippocampal neuron cultures, and to mice per condition or per genotype for electrophysiological experiments. […] For the analysis of Aβ‐BP interaction, K D was determined by fitting the data to a two‐parameter saturation curve. […] For quantitative assessment of Aβ aggregation, Aβ expression level and the percentage of synapses colocalized with Aβ, data were compared for statistical significance between groups using a Kruskal–Wallis and a Dunn's post hoc test with Holm correction (R software) (Table S3). For electrophysiological data, statistical analysis between treatments and/or genotypes were carried out using a Kruskal–Wallis followed by a Dunn's post hoc test to compare differences in fEPSP slopes (Table S3). […]
Competi tive ELISA experi ments were performed to anal yse the ability of the BP to impede bi oti nyl ated LMW Aβo bi ndi ng to VEGF. […] After adding the stop solution, absorbance was measured using a TECAN microplate reader.

The test system of series [4] is SC-CA1 synapses in APP/PS1 hippocampal slices. In words: Paired-pulse facilitation in APP/PS1 hippocampal slices. It is filed as cell-based, APP/PS1-21 mouse. The following applies: 50 ms, after TBS.
Protocol: (§4) Local field potential recordings (LFP) were performed on acute coronal hippocampal slices from 8‐month‐old wild type and transgenic heterozygous male APP/PS1‐21 mice to measure baseline synaptic response and long‐term potentiation (LTP) of Schaffer collaterals to CA1 (SC‐CA1) pyramidal cell synapses. Hippocampal slices (400 μm thick) were cut using a vibratome (Leica VT1200S) and incubated at room temperature in artificial cerebrospinal fluid (ACSF) containing (in mM): 124 NaCl, 10 glucose, 1.25 NaH2PO4, 2.5 KCl, 26 NaHCO3, 1.3 MgCl2, and 2.5 CaCl2, bubbled with 95% O2 and 5% CO2, pH 7.4 for 1 h prior to recording. Field excitatory postsynaptic potentials (fEPSPs) were recorded extracellularly in stratum radiatum of CA1 region of the dorsal hippocampus in presence of gamma‐aminobutyric acid (GABA)‐A receptor antagonist picrotoxin (100 μM). Electrical stimulation was realized with a bipolar tungsten electrode placed in CA1 stratum radiatum and fEPSPs were measured using borosilicate glass microelectrodes (~1–3 MΩ) filled with ACSF. […] LFP were sampled at 10 kHz and fEPSPs initial slope was computed to quantify synaptic responses. […] For quantification, the slope of the synaptic response to the second stimulation was divided by that of the first response.
The test system of series [5] is SC-CA1 synapses in WT hippocampal slices. The experiment in a line: Paired-pulse facilitation in WT hippocampal slices. It is filed as cell-based, wild-type mouse. The conditions noted are these: 50 ms, after TBS.
Protocol: as §4
In series [6] the test system is Aβ42 oligomerization (monomers, LMW and HMW Aβo). In words: Western blot (6E10) of soluble Aβ species formed in presence of peptide. It is filed as biochemical. The following applies: equimolar peptide, 15 μM Aβm, 37°C. On the procedure: as §1
After a 45 min blocking step in Tris‐buffered saline, 0.1% Tween, pH 7.6, 5% milk, membranes were immunoblotted overnight at 4°C with dedicated antibodies (Table S1) diluted in Tris‐buffered saline, 0.1% Tween, pH 7.6, with 2% milk. […] Proteins were visualized with an ECL detection system and band intensities quantified using a densitometric analysis with ImageJ software.

Another series deals with Aβ42 fibrils. In words: Transmission electron microscopy of Aβ aggregates. The series is classed as biochemical. As to the method: Synthetic Aβ40, Aβ42, and their biotinylated forms were obtained as lyophilized samples from Bachem (Aβ40, b‐Aβ40, Aβ42 and b‐Aβ42). Briefly, peptides were solubilized in 1,1,1,3,3,3‐hexafluoro‐2‐propanol to prevent oligomerization, then evaporated overnight under a chemical fume hood, and stored as a dried peptide film at −80°C until use, as previously described (Stine et al., [2003]). Aβ monomers (Aβm) were prepared extemporaneously by first dissolving the peptide film in 2 mM dimethyl sulfoxide (DMSO) and vortexing for 1 min. Peptides were further diluted to 100 μM in ice‐cold PBS. Diluted peptides were subsequently sonicated for 20 min at 4°C, centrifuged at 10,000g for 3 min, then the supernatant was collected and concentration of Aβm measured using a micro BCA protein assay kit, prior to being aliquoted and stored at −20°C until use. […] Aβ preparations were used either directly as monomers (for Aβ40 Elisa assays and ThT experiments) or were subjected to different oligomerization states, enriched in high molecular weight Aβ42 oligomers (HMW Aβo) or in low molecular weight Aβ42 oligomers (LMW Aβo). For Aβ preparations enriched in Aβ fibrils, monomeric Aβ42 peptides (Aβm) were incubated at a concentration of either 30 μM or 15 μM during 24 h at 37°C. For HMW Aβo, Aβm was incubated at 15 μM for 2 h at 37°C. […]

In series [7] the test system is SC-CA1 synapses in WT hippocampal slices. The experiment in a line: LTP (TBS) in WT hippocampal slices. It is filed as cell-based, wild-type mouse. As to the method: as §3
Series [8] concerns VEGFR2 phosphorylation (Tyr1175) in HUVEC. In words: VEGFR2 phosphorylation Western blot in HUVEC. It is filed as cell-based, human. The conditions noted are these: 0.5 μM, 5 min. (A western blot detects proteins with antibodies after separation by electrophoresis.)
Protocol: Human um bi l i cal v ei n endothel i al C ell s (HUVEC ) were obtai ned from Pr omocel l and cul tured
in 6 cm Petri di s hes pre-coated wi th col l ag en I at 5 µ g /cm2 in 20 mM glacial acetic acid. HUVEC
were cultured at 7000 cells/cm2 in endothelial cell growth medium MV2 heparin free
(Promocel l ) s uppl emented wi th 1% P/S unti l reac hi ng 80% c onfl uency , an d were us ed for u p
0.5 µ M. After treatments, HUVEC were washed a nd i ncubated i n 6 00 mL of l ysi s buf fer (Tri s HCL 25 mM, EDTA 5 mM, DOC 0.5 mM, NP40 1%, SDS 0.1%, NaCl 150 mM), suppl emented with cOmplete protease inhibitor cocktail 2%, Benzonase 0.02%, Orthovanadate 2%, and phos phat as e i nhi bi t ors 2% for 10 mi n at 4°C .
For immunoblotting of HUVEC cel l l y s ates , 20 µg of proteins were separated on 3-8% g radi ent SDS-PAGE gels at 120V, with cathode and ano de contai ni ng XT Try ci ne buffe r. G el s w ere transferred on 0.2 µm nitrocellulose membranes at 120V for 2h in 5% methanol, Tris-Glycine buffer and immunoblotted.
were used in combination with approp riate secondary antibodies (Table S1)
The next series concerns the target T3, Aβ42 oligomers (LMW Aβo) (Homo sapiens, UniProt P05067).
T3 construct: Biotinyl-Amyloid b pr otein ( 1-42); purchased Bachem H-5642; host or cells: chemical synthesis
In words: Indirect ELISA, binding of immobilized BP/CP to biotinylated LMW Aβ42 oligomers. As to the method:
as §1, §2

Series [9] has as its system Aβ42 monomers (Aβm), fibrillation. The experiment in a line: Thioflavin T aggregation assay. It is filed as biochemical. The following applies: increasing concentrations 0.5 to 15 μM, 15 μM Aβm, 24 h. On the procedure: as §1
Thioflavin‐T (ThT) assays were performed in black polystyrene 384‐well plates using a Tecan microplate reader with a set of excitation/emission wavelengths of 450/490 nm. […] The plate was sealed with a transparent plastic film and incubated at 37°C prior to fluorescence measurement. ThT fluorescence intensity was monitored every 5 min over 24 h at 37°C without agitation. Three replicates per condition were measured.
Data were expressed as mean ± SEM in ThT, Western blotting, synaptic targeting experiments and electrophysiological recordings (Table S2). […]

Series [10] concerns synapses / LTP impaired by Aβo. The conditions noted are these: ref Martin et al., 2021; cited from earlier work.
Where [11] appears, read: 0.5 μM, at least 40 min before TBS.

Ends that are not written are not given here.

T3 sequence (P05067 672-713 limits assumed): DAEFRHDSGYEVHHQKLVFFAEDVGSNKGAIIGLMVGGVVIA
T2 sequence (P05067 672-713 limits assumed): as above
T1 sequence (P05067 672-711 limits assumed): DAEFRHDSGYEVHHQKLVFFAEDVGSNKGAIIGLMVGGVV

With NDYKDDDDKGAAA [CP], the “Aβo binding to neuron surface and synapses” value in series [1] was “strong binding to hippocampal neuron surface”. For the same substance, the “Binding of Aβm to immobilized peptide” value on Aβ40 monomers (Aβm) is reported as “failed to bind to the CP even at the highest concentration”. Further, the “Effect on LTP in APP/PS1 slices” value in [2] (setting [11]) is listed as “failed to restore LTP”. The “LTP amplitude, fEPSP slope 55–60 min after TBS” value in series [2] (peptide 0.5 μM at least 40 min before TBS, APP/PS1 slices, 8-month-old male, mean ± SEM, n = 7 mice) worked out at 119 ± 9.1%; in series [7] (peptide 0.5 μM at least 40 min before TBS, WT slices, 8-month-old male, mean ± SEM, n = 6 mice), 191.4 ± 18.3%. For the same substance, the “Effect on Aβo-VEGF interaction” value in series [3] (peptide preincubated with Aβo 2.1 μM) is on record as “did not affect Aβo binding”. Also, the “Effect on paired-pulse ratio” value in series [4] and in series [5] was “no differences were detected” each time. Further, the “Effect on proportion of Aβ species” value in series [6] is recorded as “did not change the proportion of Aβo species”. Also, the “Morphology of Aβ aggregates by TEM” value in the series on Aβ42 fibrils (Aβ 30 μM + equimolar peptide, 24 h at 37°C, n = 4) was “typical fibrillary structures”. Moreover, the “Structures formed by peptide alone, TEM” value in the series on Aβ42 fibrils (peptide alone, no Aβ) was “do not show any detectable 3D structures”. In addition, the “Effect on LTP in WT slices” value in series [7] (setting [11]) is given as “neither CP nor the BP impacted LTP responses”. For the same substance, the “Effect on basal VEGFR2 phosphorylation” value in series [8] was “did not affect basal VEGFR2 phosphorylation level”. Moreover, the “Binding of Aβo to immobilized peptide” value at Aβ42 oligomers (LMW Aβo) (ELISA, Aβo 0 to 10 μg/mL) was “failed to bind to the CP even at the highest concentration”. In addition, the “Effect on ThT fluorescence” value in series [9] is on record as “had no impact on ThT fluorescence”.
For VEGF, the “Protection of synapses / LTP from Aβo” value in [10] was “ability to preserve synapses from dysfunction and LTP deficits caused by Aβo”.
The term EC50 denotes the concentration giving half of the maximal effect. What is called Kd is a measure of binding affinity in units of concentration. As for KRKKSRYKSWSVYVG [BP], the 50% effective concentration (EC50) in series [3] (Aβo 2.1 μM preincubated with BP 1 h RT, three-parameter sigmoidal fit, n = 5-6) was 350 nM. On Aβ42 oligomers (LMW Aβo), this substance registered a Kd of 12 nM.

These data come from PMC10497828, “A novel peptide derived from vascular endothelial growth factor prevents amyloid beta aggregation and toxicity” (Aging Cell, 2023).
